Assay results published in PubChem BioAssay AID330 (DTP/NCI, 2004).
Values joined by “and” are separate entries in the source; they are usually repeats but may differ in a detail not shown here. Equal values may be shown once. Inconclusive results and toxic doses are left out.

Test system: P388 leukemia ip, CD2F1 mice, survival T/C
Test: NCI In Vivo Anticancer Drug Screen. Data for tumor model P388 Leukemia (intraperitoneal) in CD2F1 (CDF1) mice
Settings: endpoint: median survival time, higher = longer survival
Procedure, shortened: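 Mice carrying the transplanted tumor received test compound or vehicle. Survival was recorded in each group, and the value is the treated-group measurement divided by that of the vehicle-treated control group.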

[1] = dose: 25.0 mg/kg/injection, schedule: Q01DX009 (ip), vehicle: Klucel (hydroxypropylcellulose) (HPC)
[2] = dose: 50.0 mg/kg/injection, schedule: Q01DX009 (ip), vehicle: Klucel (hydroxypropylcellulose) (HPC)
[3] = dose: 100.0 mg/kg/injection, schedule: Q01DX009 (ip), vehicle: Klucel (hydroxypropylcellulose) (HPC)
[4] = dose: 200.0 mg/kg/injection, schedule: Q01DX009 (ip), vehicle: Klucel (hydroxypropylcellulose) (HPC)
[5] = dose: 100.0 mg/kg/injection, schedule: Q04DX002 (ip), vehicle: saline with Tween-80
[6] = dose: 200.0 mg/kg/injection, schedule: Q04DX002 (ip), vehicle: saline with Tween-80
[7] = dose: 60.0 mg/kg/injection, schedule: Q01DX005 (ip), vehicle: saline with Tween-80
[8] = dose: 120.0 mg/kg/injection, schedule: Q01DX005 (ip), vehicle: saline with Tween-80
[9] = dose: 50.0 mg/kg/injection, schedule: Q01DX009 (ip), vehicle: saline
[10] = dose: 100.0 mg/kg/injection, schedule: Q01DX009 (ip), vehicle: saline
[11] = dose: 200.0 mg/kg/injection, schedule: Q01DX009 (ip), vehicle: saline
[12] = dose: 12.5 mg/kg/injection, schedule: Q01DX009 (ip), vehicle: Klucel (hydroxypropylcellulose) (HPC)
[13] = dose: 25.0 mg/kg/injection, schedule: Q01DX009 (ip), vehicle: saline

## Cc1ccc(S(=O)(=O)OCOS(=O)(=O)c2ccc(C)cc2)cc1
[1]
  T/C: 101 % of control
[2]
  T/C: 120 % of control and 121 % of control
[3]
  T/C: 122 % of control
[4]
  T/C: 123 % of control
dose: 400.0 mg/kg/injection, schedule: Q01DX009 (ip), vehicle: Klucel (hydroxypropylcellulose) (HPC)
  T/C: 160 % of control

## CC(=O)SCC1C(=O)CCCC1=O
dose: 12.5 mg/kg/injection, schedule: Q04DX003 (ip), vehicle: saline with Tween-80
  T/C: 104 % of control
dose: 25.0 mg/kg/injection, schedule: Q04DX003 (ip), vehicle: saline with Tween-80
  T/C: 101 % of control and 109 % of control
dose: 50.0 mg/kg/injection, schedule: Q04DX003 (ip), vehicle: saline with Tween-80
  T/C: 100 % of control and 124 % of control

## [Ni+2].[O-]/C(=N\N=C\c1ccccn1)c1ccccc1O.[O-]/C(=N\N=C\c1ccccn1)c1ccccc1O
dose: 50.0 mg/kg/injection, schedule: Q04DX002 (ip), vehicle: saline with Tween-80
  T/C: 98 % of control
[5]
  T/C: 101 % of control
[6]
  T/C: 89 % of control

## COC(=O)C1=C/C=C\CN/C=C\1C(=O)OC
dose: 100.0 mg/kg/injection, schedule: Q04DX003 (ip), vehicle: alcohol
  T/C: 97 % of control
dose: 200.0 mg/kg/injection, schedule: Q04DX003 (ip), vehicle: alcohol
  T/C: 97 % of control
dose: 400.0 mg/kg/injection, schedule: Q04DX003 (ip), vehicle: alcohol
  T/C: 106 % of control

## N/N=C/c1cccn1-c1ccccc1Cl
[7]
  T/C: 93 % of control
[8]
  T/C: 92 % of control

## CCN1CNC(=O)NC1
[9]
  T/C: 112 % of control
[10]
  T/C: 111 % of control
[11]
  T/C: 100 % of control
dose: 400.0 mg/kg/injection, schedule: Q01DX009 (ip), vehicle: saline
  T/C: 118 % of control

## CCN(CC)C1=NS(=O)(=O)c2ccccc2C(NN)=C1C
dose: 6.25 mg/kg/injection, schedule: Q01DX009 (ip), vehicle: Klucel (hydroxypropylcellulose) (HPC)
  T/C: 90 % of control
[12]
  T/C: 90 % of control
[1]
  T/C: 104 % of control
[5]
  T/C: 92 % of control
[6]
  T/C: 99 % of control
dose: 400.0 mg/kg/injection, schedule: Q04DX002 (ip), vehicle: saline with Tween-80
  T/C: 97 % of control

## CCN(CC)CCN(C)C(=O)C(O)(c1ccccc1)c1ccccc1
[13]
  T/C: 100 % of control
[9]
  T/C: 104 % of control
[10]
  T/C: 104 % of control
[11]
  T/C: 100 % of control

## CC(=O)OC1=C(C)[C@@H]2CC(=O)O[C@@H]3C[C@H]4[C@H](C)C[C@H](O)[C@H](O)[C@]4(C)[C@@H](C1=O)[C@@]32C
dose: 0.5 mg/kg/injection, schedule: Q01DX005 (ip), vehicle: saline + alcohol
  T/C: 101 % of control
dose: 1.0 mg/kg/injection, schedule: Q01DX005 (ip), vehicle: saline + alcohol
  T/C: 103 % of control
dose: 2.0 mg/kg/injection, schedule: Q01DX005 (ip), vehicle: saline + alcohol
  T/C: 115 % of control
dose: 4.0 mg/kg/injection, schedule: Q01DX005 (ip), vehicle: saline + alcohol
  T/C: 111 % of control
dose: 8.0 mg/kg/injection, schedule: Q01DX005 (ip), vehicle: saline + alcohol
  T/C: 115 % of control
dose: 16.0 mg/kg/injection, schedule: Q01DX005 (ip), vehicle: saline + alcohol
  T/C: 101 % of control
dose: 32.0 mg/kg/injection, schedule: Q01DX005 (ip), vehicle: saline + alcohol
  T/C: 94 % of control

## COc1nc(NC2OC(CO)C(O)C(O)C2O)c(C=O)c(=O)n1C (configuration not stated)
dose: 60.0 mg/kg/injection, schedule: Q01DX005 (ip), vehicle: saline
  T/C: 93 % of control
dose: 120.0 mg/kg/injection, schedule: Q01DX005 (ip), vehicle: saline
  T/C: 100 % of control
dose: 240.0 mg/kg/injection, schedule: Q01DX005 (ip), vehicle: saline
  T/C: 99 % of control

## Cc1ccc(S(=O)(=O)N/N=c2\ccc3ccccc3n2C)cc1
dose: 100.0 mg/kg/injection, schedule: Q04DX002 (ip), vehicle: saline
  T/C: 100 % of control
dose: 200.0 mg/kg/injection, schedule: Q04DX002 (ip), vehicle: saline
  T/C: 99 % of control
dose: 400.0 mg/kg/injection, schedule: Q04DX002 (ip), vehicle: saline
  T/C: 101 % of control

## c1cncc(CNCc2cccnc2)c1
[13]
  T/C: 94 % of control
[9]
  T/C: 110 % of control
[10]
  T/C: 97 % of control
[11]
  T/C: 94 % of control

## Brc1cc2ccccc2c2ccccc12
dose: 50.0 mg/kg/injection, schedule: Q01DX009 (ip), vehicle: saline with Tween-80
  T/C: 99 % of control
dose: 100.0 mg/kg/injection, schedule: Q01DX009 (ip), vehicle: saline with Tween-80
  T/C: 99 % of control
dose: 200.0 mg/kg/injection, schedule: Q01DX009 (ip), vehicle: saline with Tween-80
  T/C: 93 % of control
dose: 400.0 mg/kg/injection, schedule: Q01DX009 (ip), vehicle: saline with Tween-80
  T/C: 93 % of control

## CCOC(=O)Nc1cc(Cl)c2[nH]c(=O)[nH]c2n1
dose: 12.5 mg/kg/injection, schedule: Q01DX009 (ip), vehicle: other
  T/C: 103 % of control
dose: 25.0 mg/kg/injection, schedule: Q01DX009 (ip), vehicle: other
  T/C: 106 % of control
dose: 50.0 mg/kg/injection, schedule: Q01DX009 (ip), vehicle: other
  T/C: 100 % of control
dose: 100.0 mg/kg/injection, schedule: Q01DX009 (ip), vehicle: other
  T/C: 104 % of control
dose: 200.0 mg/kg/injection, schedule: Q01DX009 (ip), vehicle: other
  T/C: 100 % of control

## [Cl][Hg][CH]1CCCC2OC(C(Cl)(Cl)Cl)OC21 (configuration not stated)
dose: 3.13 mg/kg/injection, schedule: Q01DX001 (ip), vehicle: saline with Tween-80
  T/C: 113 % of control
dose: 6.25 mg/kg/injection, schedule: Q01DX001 (ip), vehicle: saline with Tween-80
  T/C: 97 % of control
dose: 12.5 mg/kg/injection, schedule: Q01DX001 (ip), vehicle: saline with Tween-80
  T/C: 94 % of control

## COc1cc(/C=C/C(NC(C)=O)c2cccc(O)c(=O)c2)cc(OC)c1OC (configuration not stated)
[12]
  T/C: 90 % of control
[1]
  T/C: 93 % of control
[2]
  T/C: 98 % of control
[3]
  T/C: 107 % of control
[4]
  T/C: 116 % of control

## COC(=O)CC1C2(C)C3=C(C)C(c4ccoc4)CC3OC2C2OC(=O)C3(C)C=CC(=O)C1(C)C23 (configuration not stated)
dose: 1.25 mg/kg/injection, schedule: Q01DX009 (ip), vehicle: Klucel (hydroxypropylcellulose) (HPC)
  T/C: 91 % of control
dose: 2.5 mg/kg/injection, schedule: Q01DX009 (ip), vehicle: Klucel (hydroxypropylcellulose) (HPC)
  T/C: 105 % of control
dose: 5.0 mg/kg/injection, schedule: Q01DX009 (ip), vehicle: Klucel (hydroxypropylcellulose) (HPC)
  T/C: 86 % of control
dose: 10.0 mg/kg/injection, schedule: Q01DX009 (ip), vehicle: Klucel (hydroxypropylcellulose) (HPC)
  T/C: 86 % of control
dose: 20.0 mg/kg/injection, schedule: Q01DX009 (ip), vehicle: Klucel (hydroxypropylcellulose) (HPC)
  T/C: 102 % of control

## COc1cc2cc3cc(-c4ccc(Cl)cc4)c(N4CCN(C)CC4)nc3nc2cc1OC
[7]
  T/C: 94 % of control
[8]
  T/C: 101 % of control
dose: 240.0 mg/kg/injection, schedule: Q01DX005 (ip), vehicle: saline with Tween-80
  T/C: 111 % of control
